Laboratory results reported in a compilation of properties of binary mixtures (doi:10.1016/j.molliq.2022.118621).

Experiment: xn = mol fraction of the nth substance listed
Settings: 100 kPa

CC(O)C(=O)[O-].CCOCCn1cc[n+](C)c1 + O
Settings | electrical conductivity [S/m] | viscosity [mPa·s]
288.15 K, x1 = 0.8091 | 0.243 | 86.2
288.15 K, x1 = 0.8366 | 0.214 | 93.5
288.15 K, x1 = 0.87 | 0.185 | 103
288.15 K, x1 = 0.9014 | 0.157 | 110.4
288.15 K, x1 = 0.9386 | 0.127 | 119.7
288.15 K, x1 = 1 | 0.082 | 132.7
293.15 K, x1 = 0.87 | 0.229 | 80.3
293.15 K, x1 = 0.9386 | 0.172 | 90.8
293.15 K, x1 = 1 | 0.123 | 99.1
298.15 K, x1 = 0.8091 | 0.336 | 52.9
298.15 K, x1 = 0.8366 | 0.306 | 56.21
298.15 K, x1 = 0.9014 | 0.248 | 63.93
298.15 K, x1 = 0.9386 | 0.218 | 68.22
298.15 K, x1 = 1 | 0.171 | 74.1
303.15 K, x1 = 0.8091 | 0.389 | 41.86
303.15 K, x1 = 0.8366 | 0.358 | 44.21
303.15 K, x1 = 0.87 | 0.33 | 47.25
303.15 K, x1 = 0.9014 | 0.302 | 49.83
303.15 K, x1 = 1 | 0.228 | 56.72
308.15 K, x1 = 0.9014 | 0.397 | 37.68
308.15 K, x1 = 0.9386 | 0.368 | 40.01
308.15 K, x1 = 1 | 0.314 | 43.14
313.15 K, x1 = 0.8091 | 0.572 | 25.13
313.15 K, x1 = 0.8366 | 0.544 | 26.5
313.15 K, x1 = 0.87 | 0.516 | 28.21
313.15 K, x1 = 0.9014 | 0.488 | 29.62
313.15 K, x1 = 0.9386 | 0.463 | 31.44
313.15 K, x1 = 1 | 0.418 | 33.82
318.15 K, x1 = 0.8091 | 0.713 | 18.65
318.15 K, x1 = 0.8366 | 0.681 | 19.82
318.15 K, x1 = 0.87 | 0.648 | 21.2
318.15 K, x1 = 0.9386 | 0.587 | 24.02
318.15 K, x1 = 1 | 0.536 | 26.08

CC(=O)[O-].CCOCCn1cc[n+](C)c1 + O
Settings | electrical conductivity [S/m] | viscosity [mPa·s]
288.15 K, x1 = 0.8294 | 0.352 | 41.8
288.15 K, x1 = 0.852 | 0.313 | 42.73
288.15 K, x1 = 0.8822 | 0.271 | 43.97
288.15 K, x1 = 0.9125 | 0.232 | 45.18
288.15 K, x1 = 0.9447 | 0.195 | 46.51
288.15 K, x1 = 1 | 0.13 | 48.34
293.15 K, x1 = 0.8294 | 0.415 | 33.23
293.15 K, x1 = 0.852 | 0.377 | 33.91
293.15 K, x1 = 0.8822 | 0.329 | 34.81
293.15 K, x1 = 1 | 0.18 | 38.07
298.15 K, x1 = 0.8294 | 0.463 | 26.38
298.15 K, x1 = 0.852 | 0.427 | 26.91
298.15 K, x1 = 0.8822 | 0.384 | 27.59
298.15 K, x1 = 0.9125 | 0.347 | 28.28
298.15 K, x1 = 1 | 0.247 | 30.01
303.15 K, x1 = 0.8294 | 0.551 | 20.99
303.15 K, x1 = 0.852 | 0.513 | 21.43
303.15 K, x1 = 0.8822 | 0.471 | 22
303.15 K, x1 = 0.9125 | 0.431 | 22.55
303.15 K, x1 = 1 | 0.329 | 23.97
308.15 K, x1 = 0.8294 | 0.674 | 16.9
308.15 K, x1 = 0.852 | 0.633 | 17.25
308.15 K, x1 = 0.9125 | 0.544 | 18.18
308.15 K, x1 = 0.9447 | 0.506 | 18.66
308.15 K, x1 = 1 | 0.435 | 19.35
313.15 K, x1 = 0.8294 | 0.804 | 13.77
313.15 K, x1 = 0.9125 | 0.676 | 14.84
313.15 K, x1 = 0.9447 | 0.638 | 15.22
318.15 K, x1 = 0.8294 | 0.985 | 11.31
318.15 K, x1 = 0.852 | 0.941 | 11.54
318.15 K, x1 = 0.8822 | 0.887 | 11.83
318.15 K, x1 = 0.9125 | 0.843 | 12.15
318.15 K, x1 = 0.9447 | 0.797 | 12.45
318.15 K, x1 = 1 | 0.719 | 12.9
